From ChEMBL document CHEMBL1201862, “PubChem BioAssay data set” (2004)
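Dose response: 5 concentrations. Exposure: 48 h. Format: 96-well plates. Endpoint: linear interpolation; highest concentration if not reached. GI50 marks 50% less growth.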 Active and inactive are the calls of the source. Cut-off read from the data, not from the text of the source: active = GI50 up to about 1.1 µM and inactive = higher. Where a SMILES comes first, the peptide text is derived from it. [ ]: non-standard residue; d: D form. Phe(4-Cl) = N[CH](Cc1ccc(Cl)cc1)C(=O)O

Legend:
Experiment in all cases: inhibition of tumour cell growth, NCI panel, 48 h
[1] = tested on: UACC-257
[2] = tested on: SNB-75
[3] = tested on: COLO 205
[4] = tested on: LOX IMVI
[5] = tested on: HCT-116
[6] = tested on: RPMI-8226
[7] = tested on: UO-31
[8] = tested on: A498
[9] = tested on: SK-MEL-28
[10] = tested on: SN12C
[11] = tested on: HT-29
[12] = tested on: SW-620
[13] = tested on: SF-295
[14] = tested on: 786-0
[15] = tested on: NCI-H460
[16] = tested on: HOP-62
[17] = tested on: OVCAR-4
[18] = tested on: OVCAR-5

Measured: GI50

COC1=CC2(C=CC1=O)c1cc(OC)c(OC)cc1CCN2C(=O)c1ccccc1 (stereo not given)
inactive: [1] > 100 µM | [2] > 100 µM | [3] > 100 µM | [4] > 100 µM | [5] > 100 µM | [6] > 100 µM | [7] 97.9 µM | [8] > 100 µM | [9] > 100 µM | [10] > 100 µM | [11] > 100 µM | [12] > 100 µM | [13] > 100 µM | [14] > 100 µM

CS(=O)(=O)NNS(=O)(=O)c1ccc(Cl)cc1
inactive: [1] > 100 µM | [2] > 100 µM | [3] > 100 µM | [4] > 100 µM | [15] > 100 µM | [5] > 100 µM | [6] > 100 µM | [7] 35.6 µM | [8] > 100 µM | [10] > 100 µM | [11] > 100 µM | [12] > 100 µM | [16] > 100 µM | [17] > 100 µM | [13] > 100 µM | [14] > 100 µM

Cc1ccc2c(c1)C(c1cccc3ccccc13)OC2=O (stereo not given)
inactive: [1] 53.8 µM | [2] 36.4 µM | [18] > 100 µM | [3] > 100 µM | [4] > 100 µM | [15] > 100 µM | [5] > 100 µM | [7] > 100 µM | [8] 26 µM | [9] > 100 µM | [10] > 100 µM | [11] > 100 µM | [12] > 100 µM | [16] 21.4 µM | [17] 35 µM | [13] 61 µM | [14] 56.9 µM

NC(=S)/N=C(/c1nc2ccc(Cl)cc2nc1O)C(O)c1ccccc1Cl (stereo not given)
inactive: [1] > 100 µM | [2] > 100 µM | [18] > 100 µM | [3] > 100 µM | [4] > 100 µM | [15] > 100 µM | [6] > 100 µM | [7] > 100 µM | [8] > 100 µM | [9] > 100 µM | [11] > 100 µM | [12] > 100 µM | [16] > 100 µM | [17] > 100 µM | [13] > 100 µM | [14] > 100 µM

CC(O)C(NC(=O)C(Cc1ccccc1)NC(=O)C(NC(=O)C(CCCCN)NC(=O)C(Cc1c[nH]c2ccccc12)NC(=O)C(Cc1ccc(O)cc1)NC(=O)C(Cc1ccc(Cl)cc1)NC(=O)C(N)Cc1ccccc1)C(C)O)C(N)=O (stereo not given) (H-F[Phe(4-Cl)]YWKTFT-NH2; configuration not given here)
inactive: [1] > 10 µM | [2] 21 µM | [3] 25.9 µM | [15] 13.7 µM | [5] 18.9 µM | [6] 14 µM | [7] 19 µM | [8] 18.8 µM | [9] 20.7 µM | [10] 41.8 µM | [11] 23.4 µM | [16] 20.5 µM | [17] 23.9 µM | [13] 8.53 µM | [14] 22.4 µM

CCOC(=O)C(O)(CC1=NC(C(=O)OC)(C(=O)OC)C(c2cccc(C=O)c2)O1)C(=O)OCC (stereo not given)
inactive: [1] > 100 µM | [2] > 100 µM | [18] > 100 µM | [3] > 100 µM | [4] > 100 µM | [15] > 100 µM | [5] > 100 µM | [6] > 100 µM | [7] > 100 µM | [8] > 100 µM | [9] > 100 µM | [10] > 100 µM | [11] > 100 µM | [12] > 100 µM | [16] > 100 µM | [17] > 100 µM | [14] > 100 µM

CCOC(=O)c1c(-c2ccccc2)oc(-c2ccccc2)c1C(=O)OCC
inactive: [1] 77.6 µM | [2] > 100 µM | [18] > 100 µM | [3] 99.1 µM | [4] > 100 µM | [5] > 100 µM | [6] 50 µM | [7] > 100 µM | [8] 60.7 µM | [9] > 100 µM | [10] > 100 µM | [11] 22.6 µM | [12] > 100 µM | [16] > 100 µM | [13] > 100 µM | [14] > 100 µM

CCCCCC1C2C(=O)NC(=O)C1C(=O)NC2=O (stereo not given)
inactive: [1] > 100 µM | [2] > 100 µM | [18] > 100 µM | [3] > 100 µM | [4] > 100 µM | [15] > 100 µM | [6] > 100 µM | [7] > 100 µM | [8] > 100 µM | [9] > 100 µM | [10] > 100 µM | [11] > 100 µM | [12] > 100 µM | [16] > 100 µM | [17] > 100 µM | [13] > 100 µM | [14] > 100 µM

COC(=O)CCC(NC(=S)N/N=C/c1ccco1)C(=O)OC (stereo not given)
inactive: [1] > 100 µM | [2] > 100 µM | [18] > 100 µM | [3] > 100 µM | [4] > 100 µM | [15] > 100 µM | [5] > 100 µM | [7] > 100 µM | [8] > 100 µM | [9] > 100 µM | [10] > 100 µM | [11] > 100 µM | [12] > 100 µM | [16] > 100 µM | [17] > 100 µM | [13] > 100 µM | [14] > 100 µM

O=c1c2ccc(Br)cc2nc(-c2ccccc2)n1NC1OC(CO)C(O)C(O)C1O (stereo not given)
inactive: [1] > 100 µM | [2] > 100 µM | [18] > 100 µM | [3] > 100 µM | [15] > 100 µM | [5] > 100 µM | [6] > 100 µM | [7] > 100 µM | [8] > 100 µM | [9] > 100 µM | [10] > 100 µM | [11] > 100 µM | [12] > 100 µM | [16] 59.3 µM | [17] > 100 µM | [13] > 100 µM | [14] > 100 µM

COc1ccc2c(c1)NC1(O)c3ccccc3C(=O)C21O (stereo not given)
inactive: [1] > 100 µM | [2] > 100 µM | [3] > 100 µM | [4] > 100 µM | [15] > 100 µM | [5] > 100 µM | [6] > 100 µM | [7] > 100 µM | [8] > 100 µM | [9] > 100 µM | [10] > 100 µM | [11] > 100 µM | [12] > 100 µM | [16] > 100 µM | [13] > 100 µM | [14] > 100 µM

CC(=O)OCC(=O)[C@@]1(O)CC[C@H]2[C@@H]3CCC4=CC(=O)[C@H](C)C[C@]4(C)[C@H]3[C@@H](O)C[C@@]21C
inactive: [1] > 100 µM | [2] > 100 µM | [18] > 100 µM | [3] > 100 µM | [4] > 100 µM | [15] > 100 µM | [5] > 100 µM | [6] > 100 µM | [8] > 100 µM | [9] > 100 µM | [10] > 100 µM | [11] > 100 µM | [12] > 100 µM | [16] > 100 µM | [17] > 100 µM | [13] > 100 µM | [14] > 100 µM
